According to patent US20240415914A1, “Water Dispersible Cannabinoid Compositions” (priority 2021, published 2024):

Experiment: Stability of cannabinoid and Vitamin E components of Beverage 1 (AB White) stored at 8° C. and 21-25° C., LCMSMS over 570 days
Type: physicochemical
Details: for Stability in AB White, 8° C. (content by LCMSMS): beverage stored at 8° C.; for Stability in AB White, 21-25° C. (content by LCMSMS): beverage stored at 21-25° C.
Procedure: The LCMSMS was calibrated for 0-1000 ng/ml cannabinoids with the same resin material used in the preparation of the concentrates. At each time period, 100 ml of beverage was diluted with 10 ml of methanol and injected into the LCMSMS for analysis.

CCCCCc1cc(O)c2c(c1)OC(C)(CCC=C(C)C)C=C2 (centres unmarked) [CBC, cannabichromene]
0.312 µg/mL: Stability in AB White, 8° C. (content by LCMSMS) (day 18) | Stability in AB White, 8° C. (content by LCMSMS) (day 450) | Stability in AB White, 21-25° C. (content by LCMSMS) (day 10) | Stability in AB White, 21-25° C. (content by LCMSMS) (day 150) | Stability in AB White, 21-25° C. (content by LCMSMS) (day 300) | Stability in AB White, 21-25° C. (content by LCMSMS) (day 330) | Stability in AB White, 21-25° C. (content by LCMSMS) (day 420)
0.294 µg/mL: Stability in AB White, 21-25° C. (content by LCMSMS) (day 480) | Stability in AB White, 21-25° C. (content by LCMSMS) (day 540)
0.315 µg/mL: Stability in AB White, 8° C. (content by LCMSMS) (day 2) | Stability in AB White, 8° C. (content by LCMSMS) (day 17) | Stability in AB White, 8° C. (content by LCMSMS) (day 22) | Stability in AB White, 21-25° C. (content by LCMSMS) (day 180)
0.299 µg/mL: Stability in AB White, 8° C. (content by LCMSMS) (day 540)
0.293 µg/mL: Stability in AB White, 8° C. (content by LCMSMS) (day 570) | Stability in AB White, 21-25° C. (content by LCMSMS) (day 510)
0.304 µg/mL: Stability in AB White, 21-25° C. (content by LCMSMS) (day 240)
0.305 µg/mL: Stability in AB White, 8° C. (content by LCMSMS) (day 480) | Stability in AB White, 21-25° C. (content by LCMSMS) (day 90)
0.322 µg/mL: Stability in AB White, 8° C. (content by LCMSMS) (day 3) | Stability in AB White, 8° C. (content by LCMSMS) (day 5) | Stability in AB White, 21-25° C. (content by LCMSMS) (day 22)
0.321 µg/mL: Stability in AB White, 8° C. (content by LCMSMS) (day 23) | Stability in AB White, 8° C. (content by LCMSMS) (day 29) | Stability in AB White, 21-25° C. (content by LCMSMS) (day 16)
0.314 µg/mL: Stability in AB White, 8° C. (content by LCMSMS) (day 1) | Stability in AB White, 8° C. (content by LCMSMS) (day 10) | Stability in AB White, 8° C. (content by LCMSMS) (day 11) | Stability in AB White, 8° C. (content by LCMSMS) (day 150)
0.307 µg/mL: Stability in AB White, 8° C. (content by LCMSMS) (day 420) | Stability in AB White, 21-25° C. (content by LCMSMS) (day 9) | Stability in AB White, 21-25° C. (content by LCMSMS) (day 210)
0.310 µg/mL: Stability in AB White, 8° C. (content by LCMSMS) (day 25) | Stability in AB White, 8° C. (content by LCMSMS) (day 390) | Stability in AB White, 21-25° C. (content by LCMSMS) (day 25) | Stability in AB White, 21-25° C. (content by LCMSMS) (day 360) | Stability in AB White, 21-25° C. (content by LCMSMS) (day 450)
0.319 µg/mL: Stability in AB White, 8° C. (content by LCMSMS) (day 9) | Stability in AB White, 8° C. (content by LCMSMS) (day 12) | Stability in AB White, 8° C. (content by LCMSMS) (day 180) | Stability in AB White, 21-25° C. (content by LCMSMS) (day 8)
0.318 µg/mL: Stability in AB White, 8° C. (content by LCMSMS) (day 8) | Stability in AB White, 8° C. (content by LCMSMS) (day 90) | Stability in AB White, 21-25° C. (content by LCMSMS) (day 2) | Stability in AB White, 21-25° C. (content by LCMSMS) (day 120)
0.316 µg/mL: Stability in AB White, 8° C. (content by LCMSMS) (day 24) | Stability in AB White, 8° C. (content by LCMSMS) (day 26) | Stability in AB White, 8° C. (content by LCMSMS) (day 60) | Stability in AB White, 8° C. (content by LCMSMS) (day 240) | Stability in AB White, 8° C. (content by LCMSMS) (day 270) | Stability in AB White, 8° C. (content by LCMSMS) (day 330) | Stability in AB White, 21-25° C. (content by LCMSMS) (day 12) | Stability in AB White, 21-25° C. (content by LCMSMS) (day 19) | Stability in AB White, 21-25° C. (content by LCMSMS) (day 23) | Stability in AB White, 21-25° C. (content by LCMSMS) (day 270)
0.323 µg/mL: Stability in AB White, 21-25° C. (content by LCMSMS) (day 5) | Stability in AB White, 21-25° C. (content by LCMSMS) (day 17)
0.306 µg/mL: Stability in AB White, 8° C. (content by LCMSMS) (day 360) | Stability in AB White, 21-25° C. (content by LCMSMS) (day 60)
0.320 µg/mL: Stability in AB White, 8° C. (content by LCMSMS) (day 0) | Stability in AB White, 8° C. (content by LCMSMS) (day 16) | Stability in AB White, 21-25° C. (content by LCMSMS) (day 0)
0.303 µg/mL: Stability in AB White, 21-25° C. (content by LCMSMS) (day 390)
0.313 µg/mL: Stability in AB White, 8° C. (content by LCMSMS) (day 300) | Stability in AB White, 21-25° C. (content by LCMSMS) (day 1) | Stability in AB White, 21-25° C. (content by LCMSMS) (day 18)
0.295 µg/mL: Stability in AB White, 8° C. (content by LCMSMS) (day 510) | Stability in AB White, 21-25° C. (content by LCMSMS) (day 570)
0.311 µg/mL: Stability in AB White, 8° C. (content by LCMSMS) (day 120) | Stability in AB White, 21-25° C. (content by LCMSMS) (day 3) | Stability in AB White, 21-25° C. (content by LCMSMS) (day 11) | Stability in AB White, 21-25° C. (content by LCMSMS) (day 15)
0.308 µg/mL: Stability in AB White, 21-25° C. (content by LCMSMS) (day 24) | Stability in AB White, 21-25° C. (content by LCMSMS) (day 26)
0.309 µg/mL: Stability in AB White, 8° C. (content by LCMSMS) (day 210)
0.317 µg/mL: Stability in AB White, 8° C. (content by LCMSMS) (day 15) | Stability in AB White, 8° C. (content by LCMSMS) (day 19) | Stability in AB White, 8° C. (content by LCMSMS) (day 30) | Stability in AB White, 21-25° C. (content by LCMSMS) (day 29) | Stability in AB White, 21-25° C. (content by LCMSMS) (day 30)
